Patent US11707442B2, “Antibacterial and antifungal compounds” (The General Hospital Corporation, priority 2015, dated 2023)
Values after ≈ are worked out from the molar mass of the structure shown. Like-named read-outs stand apart in the source and are kept apart here.

Tests used:
S. aureus = assay: Minimal inhibitory concentration (MIC), broth microdilution; format: cell-based, Staphylococcus aureus
In short: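 MIC values against methicillin-resistant Staphylococcus aureus were determined by standard broth microdilution following Clinical and Laboratory Standards Institute guidance (CLSI document M07-A8). Each well held 100 μl of test compound plus bacterial cells in MH broth, with the starting OD600 set to 0.03. Plates were incubated 18 hrs at 35° C. and absorbance was then read at 595 nm.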

K. pneumonia WGLW2 = assay: MIC, broth microdilution; format: cell-based, Klebsiella pneumoniae; conditions: Klebsiella pneumoniae; K. pneumonia WGLW2; read-out: Minimum inhibitory concentration
Text: Bacterial strains and growth conditions and persister isolation: methicillin-resistant S. aureus (MRSA) strain MW2 BAA-1707, vancomycin-resistant S. aureus strain VRS 1, 11 clinical S. aureus isolates, 8 clinical Enterococcus faecium isolates, Klebsiella pneumoniae WGLW2 (BEI Resources, Manassas, Va., USA), Acinetobacter baumannii ATCC 17978, Pseudomonas aeruginosa PA14, and Enterobacter aerogenes ATCC 13048 were used to test antimicrobial activity (See Table 1a). S. aureus and E. faecium strains were grown in tryptic soy broth (TSB) (BD, Franklin Lakes, N.J., USA) or brain-heart infusion (BHI) broth (BD, Franklin Lakes, N.J., USA), respectively at 37° C. at 225 rpm. K. pneumoniae, A. baumannii, P. aeruginosa, and E. aerogenes were grown in Luria Bertani (LB) broth (BD, Franklin Lakes, N.J., USA).
To test the bacterial MICs for compounds described herein, the total volume in each well was 100 μl of test compounds and bacterial cells in MH broth. […] The bacterial concentration was adjusted to an initial OD600 of 0.03. After incubation at 35° C. for 18 hrs, the absorbance was measured at 595 nm in accordance with CLSI document M07-A8. The MICs of antibiotics were determined by the standard microdilution method recommended by the Clinical and Laboratory Standards Institute.

[1] = system: C. elegans infected with MRSA strain MW2; format: in vivo; conditions: for C. elegans animals surviving MRSA infection: concentrations above the MIC
Description: The C. elegans-MRSA liquid infection assay has been described (Rajamuthiah et al. Plos One. 2014; 9(2):e89189). In brief, 4,500 glp-4 (bn2); sek-1(km4) L1 hatchlings were grown on SK-HB101 agar plates for 52 hours at the restrictive temperature of 25° C. until animals became sterile young adults and later harvested with M9 buffer. S. aureus MW2 was grown overnight at 37° C. in TSB, first under aerobic conditions and later shifted to anaerobic growth conditions at 37° C. The infection assay was performed in standard 384-well assay plates, in the presence of the compound being tested or 1% dimethyl sulfoxide (DMSO) as a control. Bacteria were added to the wells at a final OD600 of 0.06, followed by the use of a Complex Object Parametric Analyzer and Sorter (COPAS) large particle sorter (Union Biometrica, Holliston, Mass., USA) to transfer 15 adult worms to each well of an assay plate. After 5 days of incubation in a humidified chamber at 25° C., the bacteria and other debris were washed from the wells with a microplate washer and the worms were stained with the vital dye Sytox Orange (Life Technologies). After overnight incubation at 25° C. in a humidified chamber, the plates were imaged using an Image Xpress Micro automated microscope (Molecular Devices, Sunnyvale, Calif., USA), capturing both transmitted light and TRITC (535 nm excitation, 610 nm emission) fluorescent images with a 2× objective. The images from the infection assay were processed using the open source image analysis software CellProfiler and analysis modules as described previously. The ratio of Sytox worm area to bright field worm area, and the resultant percentage survival data, is calculated by the software for each well of the assay plates. The assay was performed in triplicate comparing the survival of worms at various concentrations of drugs.
Killing assays were carried out as described in Methods using S. aureus MRSA MW2 and 10 μg/ml retinoids, 10 μg/ml vancomycin (positive control), or 1% DMSO (negative control) at 25° C. for 5 days. Data are representative of three independent experiments. (B) Chemical structures of synthetic retinoids. (C) Growth of MRSA strain MW2 exposed to the indicated concentrations of compounds was quantified by measuring OD600 after 18 h in tryptic soy broth (TSB). (D) C. elegans infected with MRSA strain MW2 was treated with indicated concentrations of compounds. Percent survival of C. elegans was normalized to C. elegans treated with DMSO. (E-F) MRSA persisters prepared as described in Methods were treated with the indicated concentrations of each retinoid. Viability was measured by serial dilution and plating on TSA plates. The data points on the x-axis are below the level of detection (2×10^2 CFU/ml). (E,F) Results are shown as means±s.d.; n=3.

[2] = Staphylococcus aureus, S. aureus BF1, read-out: Minimum inhibitory concentration
[3] = Staphylococcus aureus, S. aureus BF2, read-out: Minimum inhibitory concentration
[4] = Staphylococcus aureus, S. aureus BF3, read-out: Minimum inhibitory concentration
[5] = Staphylococcus aureus, S. aureus BF4, read-out: Minimum inhibitory concentration
[6] = Staphylococcus aureus, S. aureus BF5, read-out: Minimum inhibitory concentration
[7] = Staphylococcus aureus, S. aureus BF6, read-out: Minimum inhibitory concentration
[8] = Staphylococcus aureus, S. aureus BF7, read-out: Minimum inhibitory concentration
[9] = Staphylococcus aureus, S. aureus BF8, read-out: Minimum inhibitory concentration
[10] = Staphylococcus aureus, S. aureus BF9, read-out: Minimum inhibitory concentration
[11] = Staphylococcus aureus, S. aureus BF10, read-out: Minimum inhibitory concentration
[12] = Staphylococcus aureus, S. aureus BF11, read-out: Minimum inhibitory concentration
[13] = Staphylococcus aureus, S. aureus JE2 (wild-type), read-out: MIC
[14] = Staphylococcus aureus, S. aureus MW2, read-out: Minimum inhibitory concentration
[15] = Staphylococcus aureus, S. aureus MW2 mutant SP1-8 (graS)
[16] = Staphylococcus aureus, S. aureus MW2 mutant SP1-48 (graS, manA)
[17] = Staphylococcus aureus, S. aureus MW2 mutant SP1-74 (graS, manA, MW2474)
[18] = Staphylococcus aureus, S. aureus MW2 mutant SP1-100 (graS, manA, MW2474)
[19] = Staphylococcus aureus, S. aureus MW2 mutant SP2-13 (yjbH)
[20] = Staphylococcus aureus, S. aureus MW2 mutant SP2-52 (yjbH, dltB)
[21] = Staphylococcus aureus, S. aureus MW2 mutant SP2-59 (yjbH, dltB, manA)
[22] = Staphylococcus aureus, S. aureus MW2 mutant SP2-65 (yjbH, dltB, manA, MW1685)
[23] = Staphylococcus aureus, S. aureus MW2 mutant SP2-100 (yjbH dltB, manA, MW1685)
[24] = Staphylococcus aureus, S. aureus MW2 serial passage culture SP1-1 (no mutated gene)
[25] = Staphylococcus aureus, S. aureus MW2 serial passage culture SP2-1 (no mutated gene)
[26] = Staphylococcus aureus, S. aureus NE896 (JE2 yjbH::ϕNΣ)
[27] = Staphylococcus aureus, S. aureus NE1645 (JE2 manA::ϕNΣ)
[28] = Staphylococcus aureus, S. aureus NE1756 (JE2 graS::ϕNΣ)
[29] = Staphylococcus aureus, S. aureus VRS1, read-out: Minimum inhibitory concentration
[30] = Staphylococcus aureus, methicillin resistant S. aureus (MRSA) strain MW2, read-out: MIC
[31] = Staphylococcus aureus, MRSA, 28 clinical MRSA isolates, 28/28 isolates, read-out: MIC

SMILES	MIC (S. aureus; [2])	MIC (S. aureus; [3])	MIC (S. aureus; [4])	MIC (S. aureus; [5])	MIC (S. aureus; [6])	MIC (S. aureus; [7])	MIC (S. aureus; [8])	MIC (S. aureus; [9])	MIC (S. aureus; [10])	MIC (S. aureus; [11])	MIC (S. aureus; [12])	MIC (S. aureus; [13])	MIC (S. aureus; [14])	MIC (S. aureus; [15])	MIC (S. aureus; [26])	MIC (S. aureus; [27])	MIC (S. aureus; [28])	MIC (S. aureus; [29])	MIC (S. aureus; [30])	MIC (K. pneumonia WGLW2)	further results
O=C(O)/C=C/c1ccc(-c2ccc(O)c(C34CC5CC(CC(C5)C3)C4)c2)cc1 [Adarotene, (2E)-3-(4′-Hydroxy-3′-tricyclo[3.3.1.13,7]dec-1-yl[1,1′-biphenyl]-4-yl)-2-propenoic acid]	4 µg/mL (≈ 10.7 µM)	2 µg/mL (≈ 5.34 µM)	2 µg/mL (≈ 5.34 µM)	2 µg/mL (≈ 5.34 µM)	2 µg/mL (≈ 5.34 µM)	2 µg/mL (≈ 5.34 µM)	2 µg/mL (≈ 5.34 µM)	2 µg/mL (≈ 5.34 µM)	2 µg/mL (≈ 5.34 µM)	2 µg/mL (≈ 5.34 µM)	2 µg/mL (≈ 5.34 µM)	2.5 µg/mL (≈ 6.68 µM)	2 µg/mL (≈ 5.34 µM)	3 µg/mL (≈ 8.01 µM)	4 µg/mL (≈ 10.7 µM)	4 µg/mL (≈ 10.7 µM)	4 µg/mL (≈ 10.7 µM)	1 µg/mL (≈ 2.67 µM)	2 µg/mL (≈ 5.34 µM)	> 64 µg/mL	MIC (S. aureus; MRSA MW2, text b656, read-out: MIC): 2 µg/mL (≈ 5.34 µM); MIC (S. aureus; Staphylococcus aureus, MRSA, 28 clinical MRSA isolates, 1 strain, read-out: MIC): 4 µg/mL (≈ 10.7 µM); MIC (S. aureus; [16]): 4 µg/mL (≈ 10.7 µM); MIC (S. aureus; [17]): 4 µg/mL (≈ 10.7 µM); MIC (S. aureus; [18]): 4 µg/mL (≈ 10.7 µM); MIC (S. aureus; [19]): 3 µg/mL (≈ 8.01 µM); MIC (S. aureus; [20]): 3 µg/mL (≈ 8.01 µM); MIC (S. aureus; [21]): 4 µg/mL (≈ 10.7 µM); MIC (S. aureus; [22]): 4 µg/mL (≈ 10.7 µM); MIC (S. aureus; [23]): 4 µg/mL (≈ 10.7 µM); MIC (S. aureus; [24]): 2 µg/mL (≈ 5.34 µM); MIC (S. aureus; [25]): 2 µg/mL (≈ 5.34 µM); rescue of C. elegans from MRSA infection ([1]; result in words): rescued
O=C(O)c1ccc2cc(-c3ccc(O)c(C45CC6CC(CC(C6)C4)C5)c3)ccc2c1 [CD437, 6-(4-hydroxy-3-tricyclo[3.3.1.13,7]dec-1-ylphenyl)-2-naphthalenecarboxylic acid]	2 µg/mL (≈ 5.02 µM)	1 µg/mL (≈ 2.51 µM)	1 µg/mL (≈ 2.51 µM)	2 µg/mL (≈ 5.02 µM)	1 µg/mL (≈ 2.51 µM)	1 µg/mL (≈ 2.51 µM)	1 µg/mL (≈ 2.51 µM)	1 µg/mL (≈ 2.51 µM)	1 µg/mL (≈ 2.51 µM)	1 µg/mL (≈ 2.51 µM)	1 µg/mL (≈ 2.51 µM)	1.5 µg/mL (≈ 3.76 µM)	1 µg/mL (≈ 2.51 µM)		2 µg/mL (≈ 5.02 µM)	3 µg/mL (≈ 7.53 µM)	2 µg/mL (≈ 5.02 µM)	1 µg/mL (≈ 2.51 µM)	1 µg/mL (≈ 2.51 µM)	> 64 µg/mL	MIC (S. aureus; [31]): ≤ 2 µg/mL; C. elegans animals surviving MRSA infection [1]: 100%
O=C(O)c1ccc(-c2ccc3cc(O)c(C45CC6CC(CC(C6)C4)C5)cc3c2)cc1 [CD1530, 4-(6-hydroxy-7-tricyclo[3.3.1.13,7]dec-1-yl-2-naphthalenyl)-benzoic acid]	2 µg/mL (≈ 5.02 µM)	1 µg/mL (≈ 2.51 µM)	1 µg/mL (≈ 2.51 µM)	1 µg/mL (≈ 2.51 µM)	1 µg/mL (≈ 2.51 µM)	1 µg/mL (≈ 2.51 µM)	1 µg/mL (≈ 2.51 µM)	1 µg/mL (≈ 2.51 µM)	2 µg/mL (≈ 5.02 µM)	1 µg/mL (≈ 2.51 µM)	1 µg/mL (≈ 2.51 µM)	1.5 µg/mL (≈ 3.76 µM)	1 µg/mL (≈ 2.51 µM)	1.5 µg/mL (≈ 3.76 µM)	2 µg/mL (≈ 5.02 µM)	3 µg/mL (≈ 7.53 µM)	2 µg/mL (≈ 5.02 µM)	1 µg/mL (≈ 2.51 µM)	1 µg/mL (≈ 2.51 µM)	> 64 µg/mL	MIC (S. aureus; [31]): ≤ 2 µg/mL; MIC (S. aureus; [16]): 2 µg/mL (≈ 5.02 µM); MIC (S. aureus; [17]): 2 µg/mL (≈ 5.02 µM); MIC (S. aureus; [18]): 2 µg/mL (≈ 5.02 µM); MIC (S. aureus; [19]): 1.5 µg/mL (≈ 3.76 µM); MIC (S. aureus; [20]): 1.5 µg/mL (≈ 3.76 µM); MIC (S. aureus; [21]): 2 µg/mL (≈ 5.02 µM); MIC (S. aureus; [22]): 2 µg/mL (≈ 5.02 µM); MIC (S. aureus; [23]): 2 µg/mL (≈ 5.02 µM); MIC (S. aureus; [24]): 1 µg/mL (≈ 2.51 µM); MIC (S. aureus; [25]): 1 µg/mL (≈ 2.51 µM); C. elegans animals surviving MRSA infection [1]: 100%; toxicity to C. elegans ([1]; up to 50 μg/ml): nontoxic
